Test results: US8084398B2, “Benzoylpyrazoles and herbicide” (Bayer Cropscience AG, priority 2006, dated 2011)

Experiments:
Setaria viridis [1] = test: Herbicidal efficacy against field weeds, after-emergence stalk and leaf spray treatment (Test Example 2); type: in vivo; conditions: 2- to 3-leaf stage, 500 g ai/ha, 2 weeks after treatment, 100% = complete death
Procedure: (§1) A suitable formulation of an active compound is obtained as an emulsifiable concentrate by mixing 1 part by weight of the active compound with the stated amounts of the carrier and emulsifier. A prescribed amount of the formulation is diluted with water.
(§2) In a green house, the seeds of field weeds (Amaranthus lividus and Setaria viridis) were inoculated by one species per pot on the surface layer in 16 cm^2 pots filled with field soil (sand loam) and covered with soil. Immediately after the inoculation, the prescribed and diluted solutions of the formulations of respective active compounds prepared according to the above preparation method, were sprayed to the soil. After 2 weeks from the treatment, the herbicidal efficacy of respective active compounds was examined. The evaluation of the herbicidal efficacy was carried out by rating complete death as 100% and as 0% in case of no herbicidal efficacy. In case of showing herbicidal efficacy of 80% or more, such active compounds are evaluated to be practical as herbicides. As typical examples, the study results with Compound Nos. 19 and 96 and those with Comparative compound C-1 are shown in Table 2 below.
Test for herbicidal efficacy against field weeds (After-emerge stalk and leave spray treatment) […]

Setaria viridis [2] = test: Herbicidal efficacy against field weeds, pre-emergence soil spray treatment (Test Example 1); type: in vivo; conditions: 500 g ai/ha, 2 weeks after treatment, 100% = complete death, 0% = no efficacy
Procedure: (§3) Test for herbicidal efficacy against field weeds (Pre-emergence soil spray treatment) Preparation of formulation of the active compound
(§4) Carrier: DMF 5 parts by weight
(§5) Emulsifier: Benzyloxy polyglycol ether 1 part by weight
as §1, §2

Amaranthus lividus = test: as above; type: in vivo; conditions: 500 g ai/ha, 2 weeks after treatment, 100% = complete death, 0% = no efficacy
Procedure: as §3, §4, §5, §1, §2

melting point | SMILES | herbicidal efficacy, Setaria viridis (Setaria viridis [1]) | herbicidal efficacy, Setaria viridis (Setaria viridis [2]) | herbicidal efficacy, Amaranthus lividus (Amaranthus lividus)
63 to 68 °C | Cc1nn(C)c(O)c1C(=O)c1ccc(Cl)c(OCCn2cnnn2)c1Cl |  |  | 
 | CS(=O)(=O)c1ccc(C(=O)C2C(=O)CCCC2=O)c(Cl)c1 [C-1] | 40% | 30% | 70%
